Experimental data as given in patent publication US20120177690A1, “USE OF RAPAMYCIN DERIVATIVES IN VASCULOPATHIES AND XENOTRANSPLANTATION” (Novartis AG, priority 1996, published 2012).

Legend:
kidney allograft = experiment: Chronic allograft rejection, rat kidney allograft model (DA to Lewis); assay type: in vivo
Procedure: The kidney of a male DA (RTI^a) rat is orthotopically transplanted into a male Lewis (RTI^1) recipient. In total 24 animals are transplanted. All animals are treated with cyclosporine A at 7.5 mg/kg/day per as for 14 days starting on the day of transplantation, to prevent acute cellular rejection. Contralateral nephrectomy is not performed. Each experimental group treated with a distinct dose of a compound of formula I or placebo comprises six animals.
Starting at day 53-64 after transplantation, the recipient animals are treated per os for another 69-72 days with a compound of formula I or receive placebo. At 14 days after transplantation animals are subjected to graft assessment by magnetic resonance imaging (MRI) with perfusion measurement of the kidneys (with comparison of the grafted kidney and the own contralateral kidney). This is repeated at days 53-64 after transplantation and at the end of the experiment. The animals are then autopsied. Rejection parameters such as MRI score, relative perfusion rate of the grafted kidney and histologic score of the kidney allograft for cellular rejection and vessel changes are determined and statistically analyzed. Administration of a compound of formula I, e.g. Compound A, at a dose of 0.5 to 2.5 mg/kg in this rat kidney allograft model yields a reduction in all above mentioned rejection parameters.

aorta allograft = experiment: Aorta transplantation in the rat (DA to Lewis); assay type: in vivo; settings: per os in microemulsion, 2.5 mg/kg/day for 7 weeks and 0.63-5.0 mg/kg/day for 11 weeks
Procedure: These include infiltration into the adventitia of mononuclear cells (lymphocytes, macrophages, some plasma cells), and thickening of the intima.
Donor aorta between the branch of the renal artery and the start of the caudal mesenteric aorta, about 1 cm in length, is harvested from a male DA (RTI^a) rat and transplanted orthotopically in a male Lewis (RTI^1) rat. Weekly after transplantation, the body weight is recorded. At autopsy, the graft with part of the aorta of the recipient just above and below the transplant is removed. It is perfused ex vivo with phosphate-buffered saline supplemented with 2% paraformaldehyde and 2.5% glutaraldehyde for about 2 minutes, then for 24 hours fixed by immersion fixation in the same solution, and thereafter fixed in 4% buffered formalin. Pieces of the graft are embedded in paraffin, in such a way that both a transversal section and a longitudinal section is made of the grafted aorta and the recipient's own aorta.
Sections of 4 μm thickness are stained by hematoxylin-eosin, elastica-von-Gieson and periodic-acid-Schiff. Apart from conventional light microscopy, images are recorded by confocal laser scanning microscopy. From each section, four areas are scanned, and from each area the thickness of the intima and intima+media is measured at five locations. […]

carotid artery = experiment: Angioplasty, balloon catheter injury of the left common carotid artery; assay type: in vivo, RoRo rats; settings: for inhibition of neointima formation: day -3 to day +14
Procedure: Studies on angioplasty are done in the model of balloon catheter injury: Balloon catheterization is performed on day 0, essentially as described by Powell et al. (1989). Under Isofluorane anaesthesia, a Fogarty 2 F catheter is introduced into the left common carotid artery via the external carotid and inflated (distension≈10 μl H2O). The inflated balloon is withdrawn along the length of the common carotid three times, the latter two times whilst twisting gently to obtain a uniform de-endothelialization. The cathethcr is then removed, a ligature placed around the external carotid to prevent bleeding and the animals allowed to recover.
2 groups of 12 RoRo rats (400 g. approximately 24 weeks old) are used for the study: one control group and one group receiving the compound of formula I. The rats are fully randomized during all handling, experimental procedures and analysis.
The compound to be tested is administered p.o. (gavage) starting 3 days before balloon injury (day −3) until the end of the study, 14 days after balloon injury (day +14). Rats are kept in individual cages and allowed food and water ad libidum.
The rats are then anaesthetized with Isofluorane, a perfusion catheter inserted through the left ventricle and secured in the aortic arch, and an aspiration cannula inserted into the right ventricle. […] The perfusion pressure is 150 mmHg at the tip of the cannula (≈100 mmHg in the carotid artery), as determined in a preliminary experiment by introducing a cannula attached to a pressure transducer into the external carotid). […]
Sections 1-2 μm thick are cut from the middle section of each carotid with a hard metal knife on a rotary microtome and stained for 2 min with Giemsa stain. About 5 sections from each carotid are thus prepared and the cross-sectional area of the media, neointima and the lumen morphometrically evaluated by means of an image analysis system (MCID, Toronto, Canada).

hamster heart xenograft = experiment: In vivo heart xenotransplantation (hamster-to-rat)
Text: The hamster-into-rat xenograft combination is a so-called difficult concordant combination. […] This is visualized in histology by destruction of blood vessels, exsudation and extravasation of erythrocytes, and influx by polymorpho- nuclear granulocytes: often there are signs of hemorrhage and thrombosis. […] This is visualized in histology by influx of mononuclear cells, including lymphocytes, lymphoblastoid cells, and macrophages, and destruction of the myocyte parenchyma. The inhibition of cellular rejection requires more immuno-suppression than that of allografts. Congenitally athymic (mu/mu) rats lack a competent (thymus-dependent) cellular immune system and generally are unable to reject allografts.
The graft is monitored daily by palpation of the abdomen. Rejection is concluded in case of cessation of heart beat. Animals are weighed weekly. In the present series of experiments, the endpoint is set to 28 days. Animals are subjected to autopsy; apart from the graft, weight and histology is assessed for thymus, spleen, liver, seminal vesicles and testes. Blood is taken and processed to serum for the determination of cytolytic anti-hamster erythrocyte antibody and hemolytic complement activity.

[1] = 4-week toxicity study in rats; assay type: in vivo
Procedure: (§1) Compounds of formula I are well tolerated at dosages required for use in accordance with the present invention. For example, the NTEL for Compound A in a 4-week toxicity study is 0.5 mg/kg/day in rats and 1.5 mg/kg/day in monkeys.

[2] = 4-week toxicity study in monkeys; assay type: in vivo
Procedure: as §1

[3] = 2.5 mg/kg/day per os, vs placebo group

SMILES: CO[C@H]1C[C@@H]2CC[C@@H](C)[C@@](O)(O2)C(=O)C(=O)N2CCCC[C@H]2C(=O)O[C@H]([C@H](C)C[C@@H]2CC[C@@H](OCCO)[C@H](OC)C2)CC(=O)[C@H](C)/C=C(\C)[C@@H](O)[C@@H](OC)C(=O)[C@H](C)C[C@H](C)/C=C/C=C/C=C/1C [Compound A, 40-O-(2-hydroxy)ethyl-rapamycin]
- MRI score of rejection (kidney allograft; [3]): significantly lower
- histologic score for cellular rejection and vessel changes (kidney allograft; [3]): significantly lower
- reduction in perfusion rate assessed by MRI (kidney allograft; [3]): significantly lower
- rejection parameters (MRI score, relative perfusion rate of the grafted kidney, histologic score for cellular rejection and vessel changes) (kidney allograft; dose of 0.5 to 2.5 mg/kg per os, from day 53-64 after transplantation for 69-72 days): reduction
- graft infiltration (aorta allograft): significantly inhibit
- neointima formation (aorta allograft): significantly inhibit
- inhibition of neointima formation (carotid artery; 0.5 mg/kg p.o. daily): 50%
- inhibition of neointima formation (carotid artery; 2.5 mg/kg p.o. daily): 75%
- intimal thickening (carotid artery; p.o. day -3 to day +14, compared to the control animals): significantly less
- graft survival (hamster heart xenograft; athymic recipients): prolonged graft survival
- graft survival (hamster heart xenograft; euthymic recipients): prolonged graft survival
- NTEL [1]: 0.5 mg/kg/day
- NTEL [2]: 1.5 mg/kg/day
